The test system of assay [1] is Canis familiaris. The assay is described as follows: In vivo antihypertensive activity against anaesthetized dogs after intravenous administration of specified threshold dose. The class given is functional, Canis lupus familiaris.
The species entered for assay [2] is Oryctolagus cuniculus. The assay is described as follows: Evaluated in vitro for the inhibition of KCl-induced contraction of isolated rabbit aorta rings. The class given is functional.

Here are results for 6 compounds from ChEMBL document CHEMBL1124767, “Synthesis, pharmacological effects, and conformation of 4,4-disubstituted 1,4-dihydropyridines” (J Med Chem, 1990).

≈ marks a conversion by molar mass, not a printed value.

In assay [1], `COC(=O)C1=C(C)NC(C)=C(C(=O)OC)C1c1ccccc1` displayed a Dose of 0.05 mg/kg. The IC50 in assay [2] stood at 0.04 µg/mL (≈ 0.133 µM).
Regarding `CCC1(c2ccccc2)C(C(=O)OC)=C(C)N=C(C)/C1=C(/O)OC` (stereo unspecified), 3.6 µg/mL (≈ 10.9 µM) corresponded to half-maximal inhibition in assay [2] (IC50).
The compound `COC(=O)C1=C(C)N=C(C)/C(=C(/O)OC)C1(C)c1cccc([N+](=O)[O-])c1` (stereo unspecified) registered a Dose in assay [1] of 0.3 mg/kg. The compound also displayed an IC50 in assay [2] of 2.3 µg/mL (≈ 6.38 µM).
The matching figures for `COC(=O)C1=C(C)N=C(C)/C(=C(/O)OC)C1(C)c1ccccc1` (stereo unspecified): 3 mg/kg and 1.2 µg/mL (≈ 3.81 µM).
In turn, `CCOC(=O)C1=C(C)N=C(C)/C(=C(/O)OCC)C1(C)c1cccnc1` (stereo unspecified) came in with a Dose in assay [1] of 3 mg/kg. This compound showed an IC50 in assay [2] of 9 µg/mL (≈ 26.1 µM).
The corresponding values for `CCOC(=O)C1=C(C)N=C(C)/C(=C(/O)OCC)C1c1cccnc1` (stereo unspecified) are 0.3 mg/kg and 0.5 µg/mL (≈ 1.51 µM).

The IC50 is the concentration that gives 50% inhibition.
